Source: ChEMBL document CHEMBL1143057, “Small molecule designed to target metal binding site in the alpha2I domain inhibits integrin function” (J Med Chem, 2007)
Active and inactive are the calls of the source. No cut-off for these calls is given here.

Columns and labels:
[1] = target: Integrin alpha-1 (Homo sapiens) (UniProt P56199); assay: Inhibition of integrin alpha-1 binding to collagen 4 at 50 uM
Integrin alpha-2 = target: T1, Integrin alpha-2 (Homo sapiens, UniProt P17301); assay: Inhibition of integrin alpha-2 domain binding to collagen 1 by Europium-labeled anti-GST assay
T1 sequence (P17301 whole entry): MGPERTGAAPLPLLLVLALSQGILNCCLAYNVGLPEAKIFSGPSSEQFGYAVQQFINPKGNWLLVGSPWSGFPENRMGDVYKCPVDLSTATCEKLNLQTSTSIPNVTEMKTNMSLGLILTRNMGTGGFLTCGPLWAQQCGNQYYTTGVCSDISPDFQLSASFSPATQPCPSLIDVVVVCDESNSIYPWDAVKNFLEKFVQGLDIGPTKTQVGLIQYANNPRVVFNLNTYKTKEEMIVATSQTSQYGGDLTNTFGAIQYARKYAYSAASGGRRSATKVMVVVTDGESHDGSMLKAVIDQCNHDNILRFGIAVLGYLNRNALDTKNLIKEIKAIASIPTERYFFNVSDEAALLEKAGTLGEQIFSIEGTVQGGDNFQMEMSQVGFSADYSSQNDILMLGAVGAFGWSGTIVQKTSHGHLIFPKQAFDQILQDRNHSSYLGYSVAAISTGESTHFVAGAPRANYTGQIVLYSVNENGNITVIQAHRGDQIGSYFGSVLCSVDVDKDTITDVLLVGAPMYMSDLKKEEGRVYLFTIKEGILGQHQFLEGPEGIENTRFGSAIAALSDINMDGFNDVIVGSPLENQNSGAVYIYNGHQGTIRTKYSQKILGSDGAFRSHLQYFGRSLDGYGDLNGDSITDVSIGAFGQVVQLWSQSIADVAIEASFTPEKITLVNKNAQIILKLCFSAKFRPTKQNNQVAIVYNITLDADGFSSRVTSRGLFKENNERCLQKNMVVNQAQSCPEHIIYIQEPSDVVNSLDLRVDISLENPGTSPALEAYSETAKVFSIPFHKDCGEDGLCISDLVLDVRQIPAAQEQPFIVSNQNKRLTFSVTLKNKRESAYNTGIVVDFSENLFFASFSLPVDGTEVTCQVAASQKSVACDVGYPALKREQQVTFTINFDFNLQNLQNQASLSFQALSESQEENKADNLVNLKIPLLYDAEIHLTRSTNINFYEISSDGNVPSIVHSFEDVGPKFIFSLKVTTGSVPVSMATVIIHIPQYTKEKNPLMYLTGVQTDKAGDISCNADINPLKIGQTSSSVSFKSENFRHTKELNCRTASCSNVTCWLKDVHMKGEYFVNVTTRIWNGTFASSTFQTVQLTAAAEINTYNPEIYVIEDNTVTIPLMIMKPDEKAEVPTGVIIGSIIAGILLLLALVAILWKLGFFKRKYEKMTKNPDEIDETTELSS

[2] = target: Integrin alpha-1 (Homo sapiens) (UniProt P56199); assay: Inhibition of integrin alpha-1 binding to collagen 1 at 50 uM
[3] = target: Integrin alpha-2 (Homo sapiens) (UniProt P17301); assay: Inhibition of integrin alpha-2 binding to collagen 4 at 50 uM
[4] = Inhibition of integrin alpha-2 E318W mutant binding to collagen 4 by Europium-labeled anti-GST assay; design: species or system Homo sapiens
[5] = target: Integrin alpha-2 (Homo sapiens) (UniProt P17301); assay: Inhibition of integrin alpha-2 domain binding to collagen 1 by Europium-labeled anti-GST assay relative to control; settings: concentration not given here
CHO [6] = assay: Cytotoxicity against CHO cells at =< 50 uM; assay type: cell-based, Cricetulus griseus; settings: chinese hamster
[7] = Inhibition of integrin alpha-2 E318W mutant binding to collagen 1 by Europium-labeled anti-GST assay; design: species or system Homo sapiens
CHO [8] = assay: Inhibition of integrin alpha-2 expressing CHO cell adhesion to collagen 1 at 10 uM; assay type: functional; settings: Cricetulus griseus
CHO [9] = assay: Inhibition of integrin alpha2 Y285F beta-1 mutant binding to collagen 1 in CHO cells; assay type: cell-based; settings: Homo sapiens
CHO [10] = assay: Cytotoxicity against CHO cells at =< 200 uM; assay type: cell-based, Cricetulus griseus; settings: chinese hamster
[11] = target: T2, Integrin alpha-11 (Homo sapiens) (UniProt Q9UKX5); assay: Inhibition of integrin alpha-11 binding to collagen 1 at 50 uM
T2 sequence (whole entry): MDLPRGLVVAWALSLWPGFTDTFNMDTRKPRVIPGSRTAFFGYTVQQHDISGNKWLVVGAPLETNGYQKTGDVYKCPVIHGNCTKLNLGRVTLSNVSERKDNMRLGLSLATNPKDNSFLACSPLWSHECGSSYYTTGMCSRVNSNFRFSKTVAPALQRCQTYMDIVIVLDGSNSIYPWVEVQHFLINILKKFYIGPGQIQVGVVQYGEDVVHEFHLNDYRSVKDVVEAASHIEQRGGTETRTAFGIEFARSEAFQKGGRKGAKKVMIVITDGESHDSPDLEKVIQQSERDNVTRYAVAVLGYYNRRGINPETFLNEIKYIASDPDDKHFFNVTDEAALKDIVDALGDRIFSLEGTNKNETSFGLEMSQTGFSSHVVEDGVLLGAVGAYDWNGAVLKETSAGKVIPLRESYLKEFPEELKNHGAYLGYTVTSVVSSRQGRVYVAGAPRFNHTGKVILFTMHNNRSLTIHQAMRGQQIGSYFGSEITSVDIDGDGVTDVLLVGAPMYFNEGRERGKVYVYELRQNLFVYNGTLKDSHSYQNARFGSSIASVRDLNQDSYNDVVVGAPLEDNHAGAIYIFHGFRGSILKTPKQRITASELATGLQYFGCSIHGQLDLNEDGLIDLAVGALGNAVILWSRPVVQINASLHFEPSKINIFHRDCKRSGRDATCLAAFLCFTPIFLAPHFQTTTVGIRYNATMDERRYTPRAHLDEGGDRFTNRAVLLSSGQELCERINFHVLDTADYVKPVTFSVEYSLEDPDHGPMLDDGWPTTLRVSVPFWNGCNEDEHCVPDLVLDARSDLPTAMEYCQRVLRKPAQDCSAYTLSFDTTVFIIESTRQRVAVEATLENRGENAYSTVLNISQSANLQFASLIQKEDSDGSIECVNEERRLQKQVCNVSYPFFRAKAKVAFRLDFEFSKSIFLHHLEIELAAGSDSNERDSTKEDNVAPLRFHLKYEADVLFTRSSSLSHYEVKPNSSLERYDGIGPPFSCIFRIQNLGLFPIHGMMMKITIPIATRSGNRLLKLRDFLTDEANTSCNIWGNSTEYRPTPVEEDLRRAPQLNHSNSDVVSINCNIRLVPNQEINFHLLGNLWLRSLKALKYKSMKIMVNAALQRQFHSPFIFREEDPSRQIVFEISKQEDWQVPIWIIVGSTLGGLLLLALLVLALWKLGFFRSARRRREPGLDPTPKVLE

[12] = target: T3, Integrin alpha-10 (Homo sapiens) (UniProt O75578); assay: Inhibition of integrin alpha-10 binding to collagen 1 at 50 uM
T3 sequence (whole entry): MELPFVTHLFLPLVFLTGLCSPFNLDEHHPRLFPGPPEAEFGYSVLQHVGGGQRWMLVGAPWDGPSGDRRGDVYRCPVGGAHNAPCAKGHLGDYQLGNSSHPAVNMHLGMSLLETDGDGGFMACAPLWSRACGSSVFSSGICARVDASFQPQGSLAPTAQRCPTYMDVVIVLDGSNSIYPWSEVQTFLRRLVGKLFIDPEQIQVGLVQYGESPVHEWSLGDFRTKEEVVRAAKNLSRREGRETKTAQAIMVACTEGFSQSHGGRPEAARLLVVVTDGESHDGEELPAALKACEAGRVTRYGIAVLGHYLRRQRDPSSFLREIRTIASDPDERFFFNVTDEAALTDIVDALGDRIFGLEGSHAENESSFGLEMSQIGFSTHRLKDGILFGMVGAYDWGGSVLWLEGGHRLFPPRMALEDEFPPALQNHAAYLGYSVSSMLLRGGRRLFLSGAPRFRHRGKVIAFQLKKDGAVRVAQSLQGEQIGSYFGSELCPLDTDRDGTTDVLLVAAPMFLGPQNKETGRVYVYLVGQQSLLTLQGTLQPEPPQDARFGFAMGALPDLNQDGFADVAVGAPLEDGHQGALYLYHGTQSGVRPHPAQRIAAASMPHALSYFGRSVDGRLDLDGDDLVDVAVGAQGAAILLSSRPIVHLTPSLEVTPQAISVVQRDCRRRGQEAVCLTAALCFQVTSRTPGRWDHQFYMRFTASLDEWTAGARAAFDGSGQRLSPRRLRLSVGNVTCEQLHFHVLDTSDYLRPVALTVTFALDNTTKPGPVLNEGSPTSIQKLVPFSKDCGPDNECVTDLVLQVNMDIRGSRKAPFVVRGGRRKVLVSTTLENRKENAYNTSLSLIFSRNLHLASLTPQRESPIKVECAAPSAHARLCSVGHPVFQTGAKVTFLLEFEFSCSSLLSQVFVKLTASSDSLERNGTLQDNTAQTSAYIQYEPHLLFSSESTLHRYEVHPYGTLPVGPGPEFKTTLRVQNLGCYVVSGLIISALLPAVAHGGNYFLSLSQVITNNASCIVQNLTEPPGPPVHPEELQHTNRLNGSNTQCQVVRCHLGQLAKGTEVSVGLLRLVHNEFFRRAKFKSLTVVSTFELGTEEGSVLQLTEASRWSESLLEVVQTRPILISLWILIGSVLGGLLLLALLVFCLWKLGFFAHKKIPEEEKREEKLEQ

Chain of Integrin alpha-1 (Homo sapiens) (P56199 whole entry): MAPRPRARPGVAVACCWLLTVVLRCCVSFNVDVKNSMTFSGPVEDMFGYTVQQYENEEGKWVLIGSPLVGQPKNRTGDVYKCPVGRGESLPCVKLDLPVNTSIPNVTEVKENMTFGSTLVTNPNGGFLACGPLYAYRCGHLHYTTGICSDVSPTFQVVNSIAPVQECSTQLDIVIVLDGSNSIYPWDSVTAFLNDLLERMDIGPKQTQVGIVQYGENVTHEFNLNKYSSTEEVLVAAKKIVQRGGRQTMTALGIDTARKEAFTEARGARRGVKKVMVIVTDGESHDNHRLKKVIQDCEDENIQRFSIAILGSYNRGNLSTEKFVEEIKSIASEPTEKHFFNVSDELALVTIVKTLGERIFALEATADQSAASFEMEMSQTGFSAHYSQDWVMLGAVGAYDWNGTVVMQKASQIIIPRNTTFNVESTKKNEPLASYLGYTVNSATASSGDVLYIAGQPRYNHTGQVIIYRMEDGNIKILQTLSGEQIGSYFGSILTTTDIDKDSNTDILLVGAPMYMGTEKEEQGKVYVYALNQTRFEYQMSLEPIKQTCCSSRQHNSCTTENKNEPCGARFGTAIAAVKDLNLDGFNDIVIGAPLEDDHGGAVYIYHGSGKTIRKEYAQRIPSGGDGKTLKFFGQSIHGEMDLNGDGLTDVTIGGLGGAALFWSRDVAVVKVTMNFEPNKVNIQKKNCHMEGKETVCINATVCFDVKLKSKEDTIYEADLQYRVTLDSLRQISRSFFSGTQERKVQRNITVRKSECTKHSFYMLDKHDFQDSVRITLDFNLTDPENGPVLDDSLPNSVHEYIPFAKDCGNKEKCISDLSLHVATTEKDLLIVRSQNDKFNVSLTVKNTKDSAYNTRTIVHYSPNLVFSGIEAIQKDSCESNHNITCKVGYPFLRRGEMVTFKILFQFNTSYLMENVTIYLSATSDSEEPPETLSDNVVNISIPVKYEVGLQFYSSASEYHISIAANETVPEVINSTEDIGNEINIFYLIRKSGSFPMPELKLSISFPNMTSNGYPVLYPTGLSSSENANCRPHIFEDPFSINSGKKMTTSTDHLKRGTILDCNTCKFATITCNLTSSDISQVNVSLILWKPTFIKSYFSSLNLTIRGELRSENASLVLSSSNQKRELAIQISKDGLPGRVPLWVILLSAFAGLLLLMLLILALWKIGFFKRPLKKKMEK

inhibition [5] [%]	SMILES	Activity (CHO [6])	inhibition at 10 µM (CHO [8]) [%]	Activity (CHO [10])	other results
	CCc1cc(O)c2c(O)c3c(cc2c1C(=O)OC)C(=O)c1cccc(O)c1C3=O				Activity [1]: Active; IC50 (Integrin alpha-2): 50 µM; Activity [2]: Active; Activity [3]: Active
100	CCc1cc(O)c2c(O)c3c(c(O)c2c1C(=O)OC)C(=O)c1cccc(O)c1C3=O [ANHYDROMAGGIEMYCIN]	Non-toxic	35		IC50 [4]: 131 µM; IC50 [7]: 160 µM; inhibition (CHO [9]): -3.3%
65	CCC1(O)CC(=O)c2c(O)c3c(c(O)c2C1C(=O)OC)C(=O)c1cccc(O)c1C3=O (stereo unspecified) [MAGGIEMYCIN]		10	Non-toxic	
90	COC(=O)c1c(C(C)C)cc(O)c2c(O)c3c(c(O)c12)C(=O)c1cccc(O)c1C3=O	Non-toxic	40		Activity [11]: Active; Activity [12]: Active
0	CCc1cc(NCCO)c2c(O)c3c(c(O)c2c1C(=O)OC)C(=O)c1cccc(O)c1C3=O		30	Non-toxic	
